# In ChEMBL document CHEMBL1201862, “PubChem BioAssay data set” (2004):
# The source made the active and inactive calls.
# Legend:
# [1] = target: T1, Ubiquitin-conjugating enzyme E2 N (Homo sapiens, UniProt P61088); type: functional;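 also: Dose-response confirmation in a TR-FRET assay detecting UBC13-driven polyubiquitin chain formation, inhibition measured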
# T1 sequence (P61088 whole entry): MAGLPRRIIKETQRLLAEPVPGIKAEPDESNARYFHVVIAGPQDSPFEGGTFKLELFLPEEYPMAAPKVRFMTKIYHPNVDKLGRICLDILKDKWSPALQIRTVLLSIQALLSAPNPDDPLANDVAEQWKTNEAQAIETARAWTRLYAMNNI
# [2] = tested on: Vero; assay: Vero E6 cell cytotoxicity, SAR follow-up, cytotoxicity control for West Nile virus antiviral project, synthesized analogs (AID 2244); type: functional; conditions: Chlorocebus sabaeus
# [3] = tested on: Vero; assay: cytotoxicity of synthesized analogs in Vero 76, SAR follow-up, cytotoxicity control for West Nile virus antiviral project, Vero 76 cells (AID 2414); type: functional; conditions: Chlorocebus sabaeus
# [4] = tested on: Vero; assay: West Nile virus CPE inhibition, SAR follow-up, cell-based, synthesized analogs (AID 2238); type: functional; conditions: Chlorocebus sabaeus
# [5] = tested on: Vero; assay: cytotoxicity of synthesized analogs in Vero cells, SAR follow-up, cytotoxicity control for West Nile virus antiviral project, cell-based, set II (AID 2402); type: functional; conditions: Chlorocebus sabaeus
# [6] = A Cell Based Assay for the Identification of Probe candidate Compounds with Anti- Venezuelan Equine Encephalitis virus. [Related pubchem assays: 2409, 2419, 1621, 2238, 2405, 2024, 2065, 2402, 2414, 1635, 1650, 2244 ]; type: functional
# [7] = target: T2, Nucleotide-binding oligomerization domain-containing protein 2 (Homo sapiens, UniProt Q9HC29); assay: PubChem AID 2334; type: functional
# [8] = tested on: HEK293; assay: NOD1 signaling inhibitors, primary screen, cell-based, luminescence, uHTS (AID 1578); type: functional; conditions: Homo sapiens
# [9] = tested on: HEK293; assay: cells; type: functional, cell-based; conditions: Homo sapiens
# [10] = target: T2, Nucleotide-binding oligomerization domain-containing protein 2; assay: NOD2 signaling inhibitors, cell-based, luminescence, uHTS, HEK293 (AID 1566); type: functional
# [11] = target: Nucleotide-binding oligomerization domain-containing protein 1 (Homo sapiens, UniProt Q9Y239); assay: NOD1 signaling inhibitors, SAR follow-up, revised (AID 2333); type: functional
# [12] = target: Tumor necrosis factor (Homo sapiens, UniProt P01375); assay: TNFa-triggered NF-kB activation inhibitors, SAR follow-up, cell-based, revised (AID 2337); type: functional
# [13] = tested on: HEK293; assay: NOD2 signaling inhibitors in MDP-stimulated cells, cell-based, uHTS, luminescence (AID 2001); type: functional; conditions: Homo sapiens
# [14] = tested on: HEK293; assay: cells; conditions: Homo sapiens
# [15] = tested on: HEK293; assay: cells; type: functional, cell-based; conditions: Homo sapiens; remark: listed apart in the source
# [16] = tested on: HEK293; assay: cells; type: functional, cell-based; conditions: Homo sapiens; remark: listed apart in the source
# [17] = target: DNA dC->dU-editing enzyme APOBEC-3G (Homo sapiens, UniProt Q9HC16); type: functional;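 also: Dose-response counterscreen measuring inhibition of APOBEC3G DNA deaminase activity, run while confirming APOBEC3A inhibitors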
# [18] = target: DNA dC->dU-editing enzyme APOBEC-3A (Homo sapiens, UniProt P31941); assay: Dose Response confirmation of small molecule APOBEC3A DNA Deaminase Inhibitors via a fluorescence-based single-stranded DNA deaminase assay. [Related pubchem assays (depositor defined):AID493011, AID493024]; type: functional
# [19] = tested on: T-cell; assay: inhibitors of CD8+ T cell–vesicle binding, dose response, mouse 2C CD8+ T cells, flow cytometry (AID 485284); type: functional
# [20] = target: T3, High affinity choline transporter 1 (Homo sapiens, UniProt Q9GZV3); assay: CHT inhibitors, dose response, cell-based, 5-point CRC, membrane potential dye (AID 504840); type: functional
# T3 sequence (Q9GZV3 whole entry): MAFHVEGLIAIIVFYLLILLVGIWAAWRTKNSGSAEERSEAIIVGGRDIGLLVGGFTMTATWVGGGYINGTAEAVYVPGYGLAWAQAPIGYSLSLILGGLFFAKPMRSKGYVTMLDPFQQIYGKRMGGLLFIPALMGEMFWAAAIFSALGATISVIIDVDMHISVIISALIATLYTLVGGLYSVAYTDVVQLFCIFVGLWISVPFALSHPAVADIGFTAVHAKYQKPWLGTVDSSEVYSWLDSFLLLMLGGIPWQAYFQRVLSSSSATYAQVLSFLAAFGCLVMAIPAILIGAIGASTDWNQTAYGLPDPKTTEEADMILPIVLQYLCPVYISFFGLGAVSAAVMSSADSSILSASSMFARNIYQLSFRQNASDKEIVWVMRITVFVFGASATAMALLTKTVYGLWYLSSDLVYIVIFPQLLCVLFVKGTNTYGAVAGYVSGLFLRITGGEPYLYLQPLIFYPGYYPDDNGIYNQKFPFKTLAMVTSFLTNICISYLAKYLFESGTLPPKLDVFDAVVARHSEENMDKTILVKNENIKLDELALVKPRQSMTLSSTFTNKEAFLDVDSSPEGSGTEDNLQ
# [21] = target: T4, Short transient receptor potential channel 4 (Mus musculus, UniProt Q9QUQ5); assay: mouse TRPC4 channel activators, dose response, cell-based, HEK293 TRPC4/mu-opioid, Fluo-4 calcium (AID 434937); type: functional
# T4 sequence (Q9QUQ5 whole entry): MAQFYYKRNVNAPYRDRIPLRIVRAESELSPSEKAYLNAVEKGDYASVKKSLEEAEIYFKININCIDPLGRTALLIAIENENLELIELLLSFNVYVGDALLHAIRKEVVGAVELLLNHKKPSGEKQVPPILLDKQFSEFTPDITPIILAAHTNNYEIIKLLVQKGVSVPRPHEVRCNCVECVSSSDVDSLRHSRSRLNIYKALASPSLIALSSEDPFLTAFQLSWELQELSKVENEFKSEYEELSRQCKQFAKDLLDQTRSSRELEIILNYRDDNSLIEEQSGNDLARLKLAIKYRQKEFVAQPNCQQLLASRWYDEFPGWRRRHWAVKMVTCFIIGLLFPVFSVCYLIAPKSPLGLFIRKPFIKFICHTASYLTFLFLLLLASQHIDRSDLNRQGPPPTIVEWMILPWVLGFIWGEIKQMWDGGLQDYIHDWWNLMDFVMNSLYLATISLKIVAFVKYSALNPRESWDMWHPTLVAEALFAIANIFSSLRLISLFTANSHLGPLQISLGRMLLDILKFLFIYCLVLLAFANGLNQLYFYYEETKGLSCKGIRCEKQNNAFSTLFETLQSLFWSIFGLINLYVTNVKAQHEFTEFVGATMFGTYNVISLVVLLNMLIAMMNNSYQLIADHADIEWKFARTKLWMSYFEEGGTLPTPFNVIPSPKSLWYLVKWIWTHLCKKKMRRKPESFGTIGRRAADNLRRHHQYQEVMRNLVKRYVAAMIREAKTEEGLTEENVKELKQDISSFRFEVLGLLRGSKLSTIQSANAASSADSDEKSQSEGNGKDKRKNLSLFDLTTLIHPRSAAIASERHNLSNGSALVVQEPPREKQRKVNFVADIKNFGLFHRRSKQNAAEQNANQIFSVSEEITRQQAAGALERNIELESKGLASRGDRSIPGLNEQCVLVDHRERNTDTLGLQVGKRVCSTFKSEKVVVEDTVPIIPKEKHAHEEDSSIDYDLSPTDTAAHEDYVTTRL
# [22] = target: Troponin, cardiac muscle (Homo sapiens, UniProt P19429+P45379+P63316); assay: Fluorescence-based biochemical high throughput dose response assay for activators of the calcium sensitivity of cardiac Regulated Thin Filaments (RTF). [Related pubchem assays (depositor defined):AID493008, AID493018, AID504382, AID504383]; type: protein-complex assay
# [23] = target: T3, High affinity choline transporter 1; assay: CHT inhibitors, dose response, cell-based, 10-point CRC, membrane potential dye (AID 588401); type: functional;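 also: membrane potential dye fluorescence of choline-evoked depolarization via CHT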
# [24] = target: Sphingosine 1-phosphate receptor 4 (Homo sapiens, UniProt O95977); assay: Late-stage fluorescence dose response cell-based assay to identify agonists of the Sphingosine 1-Phosphate Receptor 4 (S1P4): purchased compounds EC50. [Related pubchem assays (depositor defined):AID1509, AID1523, AID1563, AID1686, AID1701, AID1801]; type: functional
# [25] = target: Dual specificity protein phosphatase 3 (Homo sapiens, UniProt P51452); assay: SAR VHR1 Fluorescent Assay for In Vitro dose response studies Set 2. [Related pubchem assays (depositor defined):AID1654, AID1661, AID1878]; type: functional
# [26] = target: T5, Tyrosine-protein phosphatase non-receptor type 7 (Homo sapiens, UniProt P35236); assay: SAR analysis of chemical inhibitors of HePTP using a Fluorescent assay - Set 2. [Related pubchem assays (depositor defined):AID1059, AID1077, AID1661, AID2085, AID521]; type: functional
# T5 sequence (P35236 whole entry): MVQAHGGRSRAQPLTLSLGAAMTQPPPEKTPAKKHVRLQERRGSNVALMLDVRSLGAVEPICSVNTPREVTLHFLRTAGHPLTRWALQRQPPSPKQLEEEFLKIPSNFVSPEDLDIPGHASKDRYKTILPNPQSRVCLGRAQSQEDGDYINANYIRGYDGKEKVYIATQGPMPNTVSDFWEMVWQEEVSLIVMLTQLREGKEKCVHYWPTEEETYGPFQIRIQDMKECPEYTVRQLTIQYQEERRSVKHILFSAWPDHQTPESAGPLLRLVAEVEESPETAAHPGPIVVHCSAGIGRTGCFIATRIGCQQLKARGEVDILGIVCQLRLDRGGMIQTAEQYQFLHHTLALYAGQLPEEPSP
# [27] = inhibitors of intracellular T. cruzi replication, confirmation, NIH3T3 host cells, beta-gal luminescence (AID 2044); type: functional, cell-based;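 also: intracellular parasites grown in NIH/3T3 mouse fibroblasts as host cells; luminescent beta-galactosidase reporter signal from transgenic T. cruzi replicating inside host cells; inhibitors lower the luminescence signal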
# [28] = cytotoxicity toward NIH3T3 fibroblasts, dose response, counter-screen, cell-based, ATP luminescence, mouse fibroblasts (AID 2010); type: functional;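 also: cells exposed to compound for about 90 hours before reading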
# [29] = target: T6, Coagulation factor XII (Homo sapiens, UniProt P00748); assay: FXIIa inhibitor potency, concentration-response, biochemical (AID 716); type: functional
# T6 sequence (P00748 whole entry): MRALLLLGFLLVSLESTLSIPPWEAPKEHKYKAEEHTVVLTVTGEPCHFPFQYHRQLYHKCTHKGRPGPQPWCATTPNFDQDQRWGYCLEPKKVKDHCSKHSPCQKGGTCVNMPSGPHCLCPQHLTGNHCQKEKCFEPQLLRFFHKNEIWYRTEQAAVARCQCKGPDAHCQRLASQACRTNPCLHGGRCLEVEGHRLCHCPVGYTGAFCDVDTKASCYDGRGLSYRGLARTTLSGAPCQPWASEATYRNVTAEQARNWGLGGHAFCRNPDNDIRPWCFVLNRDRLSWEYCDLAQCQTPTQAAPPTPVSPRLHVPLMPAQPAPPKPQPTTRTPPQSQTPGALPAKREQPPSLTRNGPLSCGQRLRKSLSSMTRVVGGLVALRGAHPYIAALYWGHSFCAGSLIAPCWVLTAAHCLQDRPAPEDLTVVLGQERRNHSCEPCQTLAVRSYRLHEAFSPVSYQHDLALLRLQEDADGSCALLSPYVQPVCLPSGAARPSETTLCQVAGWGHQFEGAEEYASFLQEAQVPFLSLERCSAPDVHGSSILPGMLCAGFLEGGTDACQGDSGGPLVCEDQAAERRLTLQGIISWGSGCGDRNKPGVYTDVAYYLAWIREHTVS
# [30] = target: T7, CAAX prenyl protease 2 (Saccharomyces cerevisiae S288c, UniProt Q03530); type: biochemical
# T7 sequence (Q03530 whole entry): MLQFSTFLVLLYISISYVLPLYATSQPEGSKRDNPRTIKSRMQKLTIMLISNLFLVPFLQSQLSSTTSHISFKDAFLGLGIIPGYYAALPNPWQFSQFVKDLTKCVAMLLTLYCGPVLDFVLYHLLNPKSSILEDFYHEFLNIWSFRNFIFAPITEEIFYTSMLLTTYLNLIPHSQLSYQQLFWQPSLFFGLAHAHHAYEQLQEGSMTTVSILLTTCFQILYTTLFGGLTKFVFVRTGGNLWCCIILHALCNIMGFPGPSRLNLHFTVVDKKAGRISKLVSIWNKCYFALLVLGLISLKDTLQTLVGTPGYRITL
# [31] = target: Trypsin (Sus scrofa, UniProt P00761); assay: porcine trypsin inhibitors, dose response, selectivity assay for Rce1 protease inhibitor project, biochemical, quenched peptide fluorescence, cherry-pick (AID 488789)
# [32] = target: T6, Coagulation factor XII; assay: Factor XIIa Dose Response Confirmation from Single Well HTS. [Related pubchem assays (depositor defined):AID701]; type: functional
structure (smiles),measurement,setting,value
CC1CC(C)CN(CCCNC(=O)c2cc3c(s2)-c2ccccc2OC3)C1 (configuration not stated),IC50,[1],> 20 µM (inactive)
same,CC50,[2],12.4 µM (active)
same,CC50,[3],29.4 µM (active)
same,IC50,[4],> 40 µM (active)
same,CC50,[5],11.2 µM (active)
same,IC50,[6],15.5 µM (active)
Cc1cc(Cl)ccc1OCC(=O)Nc1ccccc1NS(=O)(=O)c1cccs1,IC50,[7],8.21 µM (active)
same,EC50,[8],5.15 µM (active)
same,IC50,[9],> 20 µM (inactive)
same,EC50,[10],6.8 µM (active)
same,IC50,[11],4.55 µM (active)
same,IC50,[12],12.3 µM (active)
same,IC50,[13],15.8 µM (inactive)
same,IC50,[14],> 20 µM (inactive)
same,IC50,[15],> 20 µM (inactive)
same,IC50,[16],> 20 µM (inactive)
CC(Oc1ccc(Br)cc1)C(=O)Nc1cc(Cl)ccc1N1CCN(C)CC1 (configuration not stated),IC50,[17],4.26 µM (active)
same,IC50,[18],3.15 µM (active)
CCC(C(=O)Nc1ccccc1)c1ccccc1 (configuration not stated),EC50,[19],88.2 nM (active)
CC(=O)OCC[N+](C)(C)C [ACETYLCHOLINE CHLORIDE],IC50,[20],6.26 µM (active)
same,EC50,[21],421 nM (active)
same,EC50,[22],> 71.4 µM (inactive)
same,IC50,[23],566 nM (active)
Cc1nn(Cc2ccccc2)c(Cl)c1C(=O)OC(C)C(=O)Nc1nc(-c2ccccc2)cs1 (configuration not stated),EC50,[24],> 50 µM (inactive)
COc1cc(C(=S)NCc2ccc(F)cc2)ccc1O,IC50,[25],99.5 µM (inactive)
same,IC50,[26],> 100 µM (inactive)
COc1ccc(C)cc1NC(=O)CCC(=O)Nc1ccc2nc(N3CCN(C)CC3)cc(C)c2c1,EC50,[27],635 nM (active)
same,EC50,[28],8.73 µM (active)
same,IC50,[29],> 50 µM (inactive)
same,AC50,[30],16.4 µM (active)
same,AC50,[31],19.7 µM (active)
CC1(C)c2ssc(=S)c2-c2ccccc2N1C(=O)c1ccco1,IC50,[32],> 50 µM (inactive)
